Measured values published in publication PMC10191551, “Safety, Tolerability, and Pharmacokinetics of Oral Ferric Maltol in Children With Iron Deficiency: Phase 1 Study” (JPGN Reports, 2021).

Key:
[1] = parameters: method as in PMID 34029682; settings: patients with CKD, over 16 weeks; ref [35]; cited from earlier work
[2] = Phase 1 study: safety and tolerability (adverse events, vital signs, ECG, laboratory tests, compliance) of oral ferric maltol; settings: for Patients With an AE: Any AE: safety population
Description: This phase 1, randomized, open-label, parallel-group pharmacokinetic study involved children seen as outpatients at 6 centers in the UK: Alder Hey Children’s NHS Foundation Trust; King’s College Hospital NHS Foundation Trust; University Hospitals of Leicester NHS Trust; Nottingham University Hospitals NHS Trust; Manchester University NHS Foundation Trust; and University College London Hospitals NHS Foundation Trust. […] Children aged 16 years or older and parents or guardians of children younger than 16 years provided written informed consent to participate before study initiation.
Children aged 10–17 years with confirmed iron deficiency at screening (defined as either ferritin <30 µg/L or ferritin <50 µg/L with transferrin saturation [TSAT] <20%) were eligible for inclusion in the study. Patients with or without anemia could be enrolled, provided hemoglobin was ≥8.5 g/dL at screening. Girls of childbearing potential had to agree to use adequate contraception during and until 4 weeks after the end of the study.
The study comprised a screening period followed by a 10-day randomized treatment period and a post-treatment safety follow-up. Children were randomized 1:1:1 (stratified by age [10–14 vs 15–17 years] and sex) to ferric maltol 7.8 mg, 16.6 mg, or 30 mg twice daily (b.d.) for 9 days and once in the morning of day 10. The first and last doses of ferric maltol were taken in the presence of the investigator. Children took each dose with a glass of water 1 hour before or 2 hours after a meal. Doses were based on daily elemental iron requirements for the broad range of body weights of participants likely to be enrolled, with the aim of finding a minimum effective dose in this age group. The 30 mg b.d. adult dosage was chosen as the highest exposure; dosages of 16.6 mg b.d. and 7.8 mg b.d. were chosen as approximately one-half and one-quarter of the adult dose, respectively, with the exact dose depending on the full fill of available capsule shell sizes.
The primary objectives were to assess iron uptake and ferric maltol pharmacokinetics. Serum iron and TSAT provided measures of iron uptake. In adults, dissociated maltol undergoes rapid glucuronidation and is cleared in urine as maltol glucuronide (36); therefore, in this study, plasma maltol glucuronide was measured to confirm the rate of clearance in children. The secondary objective was to assess the safety and tolerability of ferric maltol in terms of vital signs, AEs, concomitant medications, 12-lead electrocardiograms, and clinical laboratory blood tests.
Safety analyses were conducted in all patients who received at least 1 dose of the study medication and had at least 1 subsequent visit (the safety population). […] Clinically significant changes from baseline in vital signs, physical examination, and routine clinical laboratory abnormalities were also recorded.

Cc1occc(=O)c1[O-].Cc1occc(=O)c1[O-].Cc1occc(=O)c1[O-].[Fe+3] [Ferric maltol]
Hemoglobin and iron indices [1]: statistical and clinically significant increases in hemoglobin and iron indices | Patients With an AE: Any SAE ([2]; 7.8 mg b.d. (n = 12)): 0 (0.0) n (%) | Patients With an AE: Any TEAE ([2]; 7.8 mg b.d. (n = 12)): 7 (58.3) n (%) | Patients With an AE: TEAE leading to study discontinuation ([2]; 7.8 mg b.d. (n = 12)): 0 (0.0) n (%) | Patients With an AE: TEAE related to study drug ([2]; 7.8 mg b.d. (n = 12)): 3 (25.0) n (%) | Patients with a TEAE: Abdominal distension ([2]; 7.8 mg b.d. (n = 12)): 0 (0.0) n (%) | Patients with a TEAE: Abdominal pain ([2]; 7.8 mg b.d. (n = 12)): 0 (0.0) n (%) | Patients with a TEAE: Anal incontinence ([2]; 7.8 mg b.d. (n = 12)): 0 (0.0) n (%) | Patients with a TEAE: Cellulitis ([2]; 7.8 mg b.d. (n = 12)): 1 (8.3) n (%) | Patients with a TEAE: Constipation ([2]; 7.8 mg b.d. (n = 12)): 0 (0.0) n (%) | Patients with a TEAE: Cough ([2]; 7.8 mg b.d. (n = 12)): 1 (8.3) n (%) | Patients with a TEAE: Diarrhea ([2]; 7.8 mg b.d. (n = 12)): 2 (16.7) n (%) | Patients with a TEAE: Dizziness ([2]; 7.8 mg b.d. (n = 12)): 0 (0.0) n (%) | Patients with a TEAE: Dyspepsia ([2]; 7.8 mg b.d. (n = 12)): 0 (0.0) n (%) | Patients with a TEAE: Dyspnea ([2]; 7.8 mg b.d. (n = 12)): 1 (8.3) n (%) | Patients with a TEAE: Fatigue ([2]; 7.8 mg b.d. (n = 12)): 1 (8.3) n (%) | Patients with a TEAE: Nausea ([2]; 7.8 mg b.d. (n = 12)): 1 (8.3) n (%) | Patients with a TEAE: Nevus hemorrhage ([2]; 7.8 mg b.d. (n = 12)): 1 (8.3) n (%) | Patients with a TEAE: Palpitations ([2]; 7.8 mg b.d. (n = 12)): 1 (8.3) n (%) | Patients with a TEAE: Papule ([2]; 7.8 mg b.d. (n = 12)): 0 (0.0) n (%) | Patients with a TEAE: Pyrexia ([2]; 7.8 mg b.d. (n = 12)): 0 (0.0) n (%) | Patients with a TEAE: Skin abrasion ([2]; 7.8 mg b.d. (n = 12)): 0 (0.0) n (%) | Patients with a TEAE: Sneezing ([2]; 7.8 mg b.d. (n = 12)): 1 (8.3) n (%) | Patients with a TEAE: Tonsillitis ([2]; 7.8 mg b.d. (n = 12)): 0 (0.0) n (%) | Patients with a TEAE: Vomiting ([2]; 7.8 mg b.d. (n = 12)): 1 (8.3) n (%) | TEAEs by system organ class: Cardiac disorders ([2]; 7.8 mg b.d. (n = 12)): 1 (8.3) n (%) | TEAEs by system organ class: Gastrointestinal disorders ([2]; 7.8 mg b.d. (n = 12)): 4 (33.3) n (%) | TEAEs by system organ class: General disorders and administration-site conditions ([2]; 7.8 mg b.d. (n = 12)): 1 (8.3) n (%) | TEAEs by system organ class: Injury, poisoning, and procedural complications ([2]; 7.8 mg b.d. (n = 12)): 0 (0.0) n (%) | TEAEs by system organ class: Neoplasms benign, malignant, and unspecified ([2]; 7.8 mg b.d. (n = 12)): 1 (8.3) n (%) | TEAEs by system organ class: Nervous system disorders ([2]; 7.8 mg b.d. (n = 12)): 1 (8.3) n (%) | TEAEs by system organ class: Respiratory, thoracic, and mediastinal disorders ([2]; 7.8 mg b.d. (n = 12)): 3 (25.0) n (%) | TEAEs by system organ class: Skin and subcutaneous-tissue disorders ([2]; 7.8 mg b.d. (n = 12)): 1 (8.3) n (%) | Patients With an AE: Any AE ([2]; 7.8 mg b.d. (n = 12)): 7 (58.3) n (%) | Patients With an AE: Any SAE ([2]; 16.6 mg b.d. (n = 13)): 0 (0.0) n (%) | Patients With an AE: Any TEAE ([2]; 16.6 mg b.d. (n = 13)): 6 (46.2) n (%) | Patients With an AE: TEAE leading to study discontinuation ([2]; 16.6 mg b.d. (n = 13)): 1 (7.7) n (%) | Patients With an AE: TEAE related to study drug ([2]; 16.6 mg b.d. (n = 13)): 1 (7.7) n (%) | Patients with a TEAE: Abdominal distension ([2]; 16.6 mg b.d. (n = 13)): 0 (0.0) n (%) | Patients with a TEAE: Abdominal pain ([2]; 16.6 mg b.d. (n = 13)): 0 (0.0) n (%) | Patients with a TEAE: Anal incontinence ([2]; 16.6 mg b.d. (n = 13)): 0 (0.0) n (%) | Patients with a TEAE: Cellulitis ([2]; 16.6 mg b.d. (n = 13)): 0 (0.0) n (%) | Patients with a TEAE: Constipation ([2]; 16.6 mg b.d. (n = 13)): 0 (0.0) n (%) | Patients with a TEAE: Cough ([2]; 16.6 mg b.d. (n = 13)): 0 (0.0) n (%) | Patients with a TEAE: Diarrhea ([2]; 16.6 mg b.d. (n = 13)): 0 (0.0) n (%) | Patients with a TEAE: Dizziness ([2]; 16.6 mg b.d. (n = 13)): 1 (7.7) n (%) | Patients with a TEAE: Dyspepsia ([2]; 16.6 mg b.d. (n = 13)): 0 (0.0) n (%) | Patients with a TEAE: Dyspnea ([2]; 16.6 mg b.d. (n = 13)): 0 (0.0) n (%) | Patients with a TEAE: Fatigue ([2]; 16.6 mg b.d. (n = 13)): 1 (7.7) n (%) | Patients with a TEAE: Nausea ([2]; 16.6 mg b.d. (n = 13)): 0 (0.0) n (%) | Patients with a TEAE: Nevus hemorrhage ([2]; 16.6 mg b.d. (n = 13)): 0 (0.0) n (%) | Patients with a TEAE: Palpitations ([2]; 16.6 mg b.d. (n = 13)): 0 (0.0) n (%) | Patients with a TEAE: Papule ([2]; 16.6 mg b.d. (n = 13)): 0 (0.0) n (%) | Patients with a TEAE: Pyrexia ([2]; 16.6 mg b.d. (n = 13)): 0 (0.0) n (%) | Patients with a TEAE: Skin abrasion ([2]; 16.6 mg b.d. (n = 13)): 1 (7.7) n (%) | Patients with a TEAE: Sneezing ([2]; 16.6 mg b.d. (n = 13)): 0 (0.0) n (%) | Patients with a TEAE: Tonsillitis ([2]; 16.6 mg b.d. (n = 13)): 1 (7.7) n (%) | Patients with a TEAE: Vomiting ([2]; 16.6 mg b.d. (n = 13)): 1 (7.7) n (%) | TEAEs by system organ class: Cardiac disorders ([2]; 16.6 mg b.d. (n = 13)): 0 (0.0) n (%) | TEAEs by system organ class: Gastrointestinal disorders ([2]; 16.6 mg b.d. (n = 13)): 2 (15.4) n (%) | TEAEs by system organ class: General disorders and administration-site conditions ([2]; 16.6 mg b.d. (n = 13)): 2 (15.4) n (%) | TEAEs by system organ class: Injury, poisoning, and procedural complications ([2]; 16.6 mg b.d. (n = 13)): 1 (7.7) n (%) | TEAEs by system organ class: Neoplasms benign, malignant, and unspecified ([2]; 16.6 mg b.d. (n = 13)): 0 (0.0) n (%) | TEAEs by system organ class: Nervous system disorders ([2]; 16.6 mg b.d. (n = 13)): 3 (23.1) n (%) | TEAEs by system organ class: Respiratory, thoracic, and mediastinal disorders ([2]; 16.6 mg b.d. (n = 13)): 0 (0.0) n (%) | TEAEs by system organ class: Skin and subcutaneous-tissue disorders ([2]; 16.6 mg b.d. (n = 13)): 0 (0.0) n (%) | Patients With an AE: Any AE ([2]; 16.6 mg b.d. (n = 13)): 7 (53.8) n (%) | Children who discontinued the study early because of a TEAE ([2]; 16.6 mg group, moderate tonsillitis, not related to study drug): 1 | Patients With an AE: Any SAE ([2]; 30 mg b.d. (n = 12)): 0 (0.0) n (%) | Patients With an AE: Any TEAE ([2]; 30 mg b.d. (n = 12)): 7 (58.3) n (%) | Patients With an AE: TEAE leading to study discontinuation ([2]; 30 mg b.d. (n = 12)): 0 (0.0) n (%) | Patients With an AE: TEAE related to study drug ([2]; 30 mg b.d. (n = 12)): 5 (41.7) n (%) | Patients with a TEAE: Abdominal distension ([2]; 30 mg b.d. (n = 12)): 1 (8.3) n (%) | Patients with a TEAE: Abdominal pain ([2]; 30 mg b.d. (n = 12)): 1 (8.3) n (%) | Patients with a TEAE: Anal incontinence ([2]; 30 mg b.d. (n = 12)): 1 (8.3) n (%) | Patients with a TEAE: Cellulitis ([2]; 30 mg b.d. (n = 12)): 0 (0.0) n (%) | Patients with a TEAE: Constipation ([2]; 30 mg b.d. (n = 12)): 1 (8.3) n (%) | Patients with a TEAE: Cough ([2]; 30 mg b.d. (n = 12)): 1 (8.3) n (%) | Patients with a TEAE: Diarrhea ([2]; 30 mg b.d. (n = 12)): 1 (8.3) n (%) | Patients with a TEAE: Dizziness ([2]; 30 mg b.d. (n = 12)): 2 (16.7) n (%) | Patients with a TEAE: Dyspepsia ([2]; 30 mg b.d. (n = 12)): 1 (8.3) n (%) | Patients with a TEAE: Dyspnea ([2]; 30 mg b.d. (n = 12)): 0 (0.0) n (%) | Patients with a TEAE: Fatigue ([2]; 30 mg b.d. (n = 12)): 2 (16.7) n (%) | Patients with a TEAE: Nausea ([2]; 30 mg b.d. (n = 12)): 1 (8.3) n (%) | Patients with a TEAE: Nevus hemorrhage ([2]; 30 mg b.d. (n = 12)): 0 (0.0) n (%) | Patients with a TEAE: Palpitations ([2]; 30 mg b.d. (n = 12)): 0 (0.0) n (%) | Patients with a TEAE: Papule ([2]; 30 mg b.d. (n = 12)): 1 (8.3) n (%) | Patients with a TEAE: Pyrexia ([2]; 30 mg b.d. (n = 12)): 1 (8.3) n (%) | Patients with a TEAE: Skin abrasion ([2]; 30 mg b.d. (n = 12)): 0 (0.0) n (%) | Patients with a TEAE: Sneezing ([2]; 30 mg b.d. (n = 12)): 0 (0.0) n (%)
